What all share (assay type): cell-based
One test relates to GP2d. Put plainly: Cell proliferation (cell count by microscopy), Example 3. The following applies: single agent, 72 h, cell count relative to DMSO, unit (micromolar, top dose 10 μM). On the procedure: (§1) COMPOUNDS A, B and C were dissolved in 100% DMSO (Sigma, Catalog number D2650) at concentrations of 20 mM and stored at −20° C. until use. Compounds were arrayed in drug master plates (Greiner, Catalog number 788876) and serially diluted 3-fold (7 steps) at 2000× concentration.
(§2) To test the effect of the combination of COMPOUND A, COMPOUND B, and COMPOUND C on cell proliferation cells were plated in black 384-well microplates with clear bottom (Matrix/Thermo Scientific, Catalog number 4332) in 50 μL media per well at cell densities between 500 and 1250 cells/well (Table 1 above) and allowed to incubate at 37 degrees, 5% CO2 for 24 h. After 24 h one 384-well plate per cell line was prepared for cell counting by microscopy (see below) without receiving treatment (=‘baseline’). The other cell plates were treated by transferring 25 nL of the 2000× compound from drug master plates using an ATS acoustic liquid dispenser (ECD Biosystems) and resulting in a final 1× concentration. COMPOUND A was used over a final concentration range of 13 nM-10 μM, COMPOUND B was used over a final concentration range of 13 nM-10 μM, and COMPOUND C was used over a final concentration range of 13 nM-10 μM (7 1:3 dilution steps). In order to assess the effect of the triple combination all individual COMPOUNDS (A, B, C), all three pair wise combinations (A+B, A+C, B+C), and the triple combination (A+B+C) were tested in the same experiment. Pair wise combinations and the triple combination were tested at a fixed ratio of 1:1 (for drug pairs) and 1:1:1 (for the drug triple) at each dilution resulting in 7 combination conditions per treatment. […] After compound addition 50 nL of 2 mM CellEvent Caspase-3/7 Green Detection Reagent (ThermoFisher, Catalog number C10423) were added to one of the three replicates using the HP D300 Digital Dispenser (Tecan). Caspase 3/7 induction was measured as a proxy for apoptosis induced by the treatments. Cells were treated for 72 h to 96 h depending on their doubling time (Table 1), and Caspase 3/7 activation was measured every 24 h by microscopy using an InCell Analyzer 2000 (GE Healthcare) equipped with a 4× objective and FITC excitation/emission filters. At the end of the treatment cells were prepared for cell counting by microscopy. Cells were fixed and permeabilised for 45 minutes in 4% PFA (Electron Microscopy Sciences, Catalog number 15714), 0.12% TX-100 (Electron Microscopy Sciences, Catalog number 22140) in PBS (Boston Bioproducts, Catalog number BM-220). After washing cells three times with PBS their DNA was stained for 30 minutes with Hoechst 33342 (ThermoFisher, Catalog number H3570) at a final concentration of 4 μg/mL. Cells were washed three times with PBS and then plates were heat-sealed using a PlateLoc (Agilent Technologies) with aluminum seals (Agilent Technologies, Catalog number 06644-001) and stored at 4° C. until imaging. All cells per well/treatment were captured in a single image by fluorescence microscopy using an InCell Analyzer 2000 (GE Healthcare) equipped with a 4× objective and DAPI excitation/emission filters.
(§3) Images were analyzed after adapting previously described methods (Horn, Sandmann et al. 2011, Nat. Methods 8(4): 341-346) and using the Bioconductor package EBImage in R (Pau, Fuchs et al. 2010, Bioinformatics 26(7):979-981). Objects in both channels, DAPI (for Hoechst/DNA) and FITC (for Caspase 3/7), were segmented separately by adaptive thresholding and counted. A threshold for Caspase 3/7 positive objects was defined manually per cell line after comparing negative controls (DMSO) and positive controls (Staurosporine). By analyzing 17 additional object/nuclei features in the DNA channel (shape and intensity features) debris/fragmented nuclei were identified. To this end per cell line the distributions of the additional features between positive controls (Staurosporine) and negative controls (DMSO) were compared manually. […]

Another test concerns HCT-116. Described as above. The following applies: Homo sapiens; HCT-116, single agent, 72 h, cell count relative to DMSO. How it is done: as §1, §2, §3
The next test has as its system LS-180. The description is as above. The following applies: Homo sapiens, LS180; LS-160 (so in the source), single agent, 72 h, cell count relative to DMSO. On the procedure:
as §1, §2, §3

Another test relates to LoVo. Described as above. Particulars: Homo sapiens, single agent, 96 h, cell count relative to DMSO. On the procedure: as §1, §2, §3
A further test relates to RKO. The description is as above. Particulars: Homo sapiens, single agent, 72 h, cell count relative to DMSO. How it is done: as §1, §2, §3
In test [1] the test system is 5 TP53 wild type colorectal cancer cell lines. Put plainly: Cell proliferation over the cell line panel, Example 3. Particulars: Example 3, panel of 5 lines, 13 nM-10 μM. How it is done: To test the effect of the combination of COMPOUND A, COMPOUND B, and COMPOUND C on cell proliferation cells were plated in black 384-well microplates with clear bottom (Matrix/Thermo Scientific, Catalog number 4332) in 50 μL media per well at cell densities between 500 and 1250 cells/well (Table 1 above) and allowed to incubate at 37 degrees, 5% CO2 for 24 h. After 24 h one 384-well plate per cell line was prepared for cell counting by microscopy (see below) without receiving treatment (=‘baseline’). The other cell plates were treated by transferring 25 nL of the 2000× compound from drug master plates using an ATS acoustic liquid dispenser (ECD Biosystems) and resulting in a final 1× concentration. COMPOUND A was used over a final concentration range of 13 nM-10 μM, COMPOUND B was used over a final concentration range of 13 nM-10 μM, and COMPOUND C was used over a final concentration range of 13 nM-10 μM (7 1:3 dilution steps). In order to assess the effect of the triple combination all individual COMPOUNDS (A, B, C), all three pair wise combinations (A+B, A+C, B+C), and the triple combination (A+B+C) were tested in the same experiment. […] Caspase 3/7 induction was measured as a proxy for apoptosis induced by the treatments. Cells were treated for 72 h to 96 h depending on their doubling time (Table 1), and Caspase 3/7 activation was measured every 24 h by microscopy using an InCell Analyzer 2000 (GE Healthcare) equipped with a 4× objective and FITC excitation/emission filters. […] All cells per well/treatment were captured in a single image by fluorescence microscopy using an InCell Analyzer 2000 (GE Healthcare) equipped with a 4× objective and DAPI excitation/emission filters.
Images were analyzed after adapting previously described methods (Horn, Sandmann et al. 2011, Nat. Methods 8(4): 341-346) and using the Bioconductor package EBImage in R (Pau, Fuchs et al. 2010, Bioinformatics 26(7):979-981). Objects in both channels, DAPI (for Hoechst/DNA) and FITC (for Caspase 3/7), were segmented separately by adaptive thresholding and counted. […]

One may read the IC50 as the concentration that gives 50% inhibition.

For `CC1(C)CCC(c2ccc(Cl)cc2)=C(CN2CCN(c3ccc(C(=O)NS(=O)(=O)c4ccc(N[C@H](CCN5CCOCC5)CSc5ccccc5)c(S(=O)(=O)C(F)(F)F)c4)cc3)CC2)C1` [COMPOUND C, 4-[4-[[2-(4-Chlorophenyl)-5,5-dimethyl-1-cyclohexen-1-yl]methyl]-1-piperazinyl]-N-[[4-[[(1R)-3-(4-morpholinyl)-1-[(phenylthio)methyl]propyl]amino]-3-[(trifluoromethyl)sulfonyl]phenyl]sulfonyl]benzamide, reference compound], the IC50 with GP2d, with HCT-116, in the test on LS-180, in the test on LoVo and with RKO was more than 10 µM throughout. Also, the “Single agent growth inhibition, in words” value in test [1] is reported as “no single agent efficacy”.

The record behind these values is patent US20180318275A1, “COMBINATION THERAPY USING PI3K INHIBITOR AND MDM2 INHIBITOR” (Novartis AG, priority 2015, published 2018).
